These results are taken from patent publication US12157730B2, “Heteroaryl derivative, method for producing same, and pharmaceutical composition comprising same as effective component” (VORONOI INC., priority 2019, dated 2024).

Molecules are shown by their SMILES.

This assay addresses T1, Ba/F3 cell EGFR Exon20 ins NPH (Homo sapiens, UniProt P00533, INS773NPH).
T1 construct: expressed in transfected cells; host or cells: Ba/F3
Description: Ba/F3 cell proliferation suppression, EGFR Exon20 ins NPH. Type of assay: cell-based. The settings on record: GI50 class; Ba/F3 cell line with NPH inserted at Exon20 of EGFR; 72 hours. In outline:
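72 h compound exposure, 0.3 nM–50 um (12 points, 3:1 dilution in DMSO); viability by CellTiter-Glo luminescence. Ba/F3 medium: RPMI-1640, 10% FBS, 5 ng/ml IL-3, 1 ug/ml puromycin for transduced cells. GI50 vs control, n=3.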

As to `C=CC(=O)Nc1cc(Nc2cc(N3OCC[C@@H]3c3cccc(Cl)c3)ncn2)c(OC)cc1N1CCC(N2CCC(N(C)C)CC2)CC1` [compound 414, N-(5-((6-((R)-3-(3-chlorophenyl)isoxazolidine-2-yl)pyrimidine-4-yl)amino)-2-(4-(dimethylamino)-[1,4'-bipiperidine]-1'-yl)-4-methoxyphenyl) acrylamide], the “Ba/F3 (NPH) Activity” value is reported as “A (GI50 < 50 nM)”.

Take `C=CC(=O)Nc1cc(Nc2cc(N3OCC[C@@H]3c3cc(F)cc(F)c3)ncn2)c(OC)cc1N1CCC(N2CCN(C)C[C@H]2C)CC1` [compound 761, N-(5-((6-((R)-3-(3,5-difluorophenyl)isoxazolidine-2-yl)pyrimidine-4-yl)amino)-2-(4-((R)-2,4-dimethylpiperazine-1-yl)piperidine-1-yl)-4-methoxyphenyl) acrylamide]: the “Ba/F3 (NPH) Activity” value is listed as “A (GI50 < 50 nM)”.

Turning to `C=CC(=O)Nc1cc(Nc2cc(N3OCC[C@@H]3c3ccc(F)cc3F)ncn2)c(OC)cc1N1CCN(C2CC2)[C@@H](C)C1` [compound 479, N-(2-((S)-4-cyclopropyl-3-methylpiperazine-1-yl)-5-((6-((R)-3-(2,4-difluorophenyl)isoxazolidine-2-yl)pyrimidine-4-yl)amino)-4-methoxyphenyl) acrylamide], the “Ba/F3 (NPH) Activity” value is reported as “A (GI50 < 50 nM)”.

On to `C=CC(=O)Nc1cc(Nc2cc(N3OCC[C@@H]3Cc3cccc(N(C)C)c3)ncn2)c(OC)cc1N1CCN(C2CC2)CC1` [compound 1043, N-(2-(4-cyclopropylpiperazine-1-yl)-5-((6-((S)-3-(3-(dimethylamino)benyl)isoxazolidine-2-yl)prymidine-4-yl)amino)-4-methoxyphenyl) acrylamide], for which the “Ba/F3 (NPH) Activity” value is “C (500 nM ≤ GI50 < 5000 nM)”.

Consider `C=CC(=O)Nc1cc(Nc2cc(N3OCC[C@@H]3c3cc(F)ccc3F)ncn2)c(OC)cc1N1CC[C@@H](N(C)C)C1` [compound 848, N-(5-((6-(2,5-((R)-3-difluorophenyl)isoxazolidine-2-yl)pyrimidine-4-yl)amino)-2-((R)-3-(dimethylamino)pyrolidine-1-yl)-4-methoxyphenyl) acrylamide], for which the “Ba/F3 (NPH) Activity” value is “A (GI50 < 50 nM)”.

As for `C=CC(=O)Nc1cc(Nc2cc(N3OCC[C@@H]3c3ccc(Cl)cc3F)ncn2)c(OC)cc1N1CCC(N2C[C@@H]3C[C@H]2CO3)CC1` [compound 373, N-(2-(4-((1S,4S)-2-oxa-5-azabicyclo[2.2.1]heptane-5-yl)piperidine-1-yl)-5-((6-((R)-3-(4-chloro-2-fluorophenyl)isoxazolidine-2-yl)pyrimidine-4-yl)amino)-4-methoxyphenyl) acrylamide], the “Ba/F3 (NPH) Activity” value is listed as “A (GI50 < 50 nM)”.

In the case of `C=CC(=O)Nc1cc(Nc2cc(N3OCC[C@@H]3Cc3cccc(F)c3)ncn2)c(OC)cc1N1CCC(N2C[C@H]3C[C@@H]2CO3)CC1` [compound 998, N-(2-(4-((1R,4R)-2-oxa-5-azabicyclo [2.2.1]heptane-5-yl)piperidine-1-yl)-5-((6-((S)-3-(3-fluorobenzyl)isoxazolidine-2-yl)pyrimidine-4-yl)amino)-4-methoxyphenyl) acrylamide], the “Ba/F3 (NPH) Activity” value is “A (GI50 < 50 nM)”.

Take `C=CC(=O)Nc1cc(Nc2cc(N3OCC[C@@H]3c3cc(F)ccc3F)ncn2)c(OC)cc1N1CCC(N2CC3CCC(C2)N3C2CC2)CC1` [Example 134, N-(2-(4-(8-cyclopropyl-3,8-diazabicyclo[3.2.1]octan-3-yl)piperidine-1-yl)-5-((6-((R)-3-(2,5-difluorophenyl)isoxazolidine-2-yl)pyrimidine-4-yl)amino)-4-methoxyphenyl) acrylamide]: the “Ba/F3 (NPH) Activity” value is reported as “A (GI50 < 50 nM)”.

Consider `C=CC(=O)Nc1cc(Nc2cc(N3OCC[C@@H]3c3ccc(F)cc3F)ncn2)c(OC)cc1N1CCC(N2CCN(C3CCCC3)CC2)CC1` [Example 205, N-(2-(4-(4-cyclopentylpiperazine-1-yl)piperidine-1-yl)-5-((6-((R)-3-(2,4-difluorophenyl)isoxazolidine-2-yl)pyrimidine-4-yl)amino)-4-methoxyphenyl) acrylamide], for which the “Ba/F3 (NPH) Activity” value was “A (GI50 < 50 nM)”.

`C=CC(=O)Nc1cc(Nc2cc(N3OCC[C@@H]3c3cccc(F)c3Cl)ncn2)c(OC)cc1N1CCC(N2C[C@@H]3C[C@H]2CO3)CC1` [compound 640, N-(2-(4-((1S,4S)-2-oxa-5-azabicyclo[2.2.1]heptane-5-yl)piperidine-1-yl)-5-((6-((R)-3-(2-chloro-3-fluorophenyl)isoxazolidine-2-yl)pyrimidine-4-yl)amino)-4-methoxyphenyl) acrylamide]: the “Ba/F3 (NPH) Activity” value is “A (GI50 < 50 nM)”.

Consider `C=CC(=O)Nc1cc(Nc2cc(N3OCC[C@@H]3c3cc(F)cc(Cl)c3)ncn2)c(OC)cc1N1CCC(N2CCN(C(C)C)CC2)CC1` [compound 593, N-(5-((6-((R)-3-(3-chloro-5-fluorophenyl)isoxazolidine-2-yl)pyrimidine-4-yl)amino)-2-(4-(4-isopropylpiperazine-1-yl)piperidine-1-yl)-4-methoxyphenyl) acrylamide], for which the “Ba/F3 (NPH) Activity” value is listed as “A (GI50 < 50 nM)”.

Turning to `C=CC(=O)Nc1cc(Nc2cc(N3OCC[C@@H]3c3cccc(Cl)c3C)ncn2)c(OC)cc1N1CCC(N2CCN(CC)CC2)CC1` [compound 487, N-(5-((6-((R)-3-(3-chloro-2-methylphenyl)isoxazolidine-2-yl)pyrimidine-4-yl)amino)-2-(4-(4-ethylpiperazine-1-yl)piperidine-1-yl)-4-methoxyphenyl) acrylamide], the “Ba/F3 (NPH) Activity” value is given as “A (GI50 < 50 nM)”.

As for `C=CC(=O)Nc1cc(Nc2cc(N3OCC[C@@H]3c3cccc(F)c3Cl)ncn2)c(OC)cc1N(C)CCN(C)C` [compound 551, N-(5-((6-((R)-3-(2-chloro-3-fluorophenyl)isoxazolidine-2-yl)pyrimidine-4-yl)amino)-2-((2-(dimethylamino)ethyl)(methyl)amino)-4-methoxyphenyl) acrylamide], the “Ba/F3 (NPH) Activity” value was “A (GI50 < 50 nM)”.

For `C=CC(=O)Nc1cc(Nc2cc(N3OCC[C@@H]3c3ccc(F)cc3F)ncn2)c(OC)cc1N1CCN(CC)CC1` [compound 351, N-(5-((6-((R)-3-(2,4-difluorophenyl)isoxazolidine-2-yl)pyrimidine-4-yl)amino)-2-(4-ethylpiperazine-1-yl)-4-methoxyphenyl) acrylamide], the “Ba/F3 (NPH) Activity” value is on record as “A (GI50 < 50 nM)”.

Consider `C=CC(=O)Nc1cc(Nc2cc(N3OCC[C@@H]3c3c(F)ccc(F)c3F)ncn2)c(OC)cc1N(C)CCN(C)C` [compound 628, N-(2-((2-(dimethylamino)ethyl) (methyl)amino)-4-methoxy-5-((6-((R)-3-(2,3,6-trifluorophenyl)isoxazolidine-2-yl)pyrimidine-4-yl)amino)phenyl)acrylamide], for which the “Ba/F3 (NPH) Activity” value is on record as “A (GI50 < 50 nM)”.

`C=CC(=O)Nc1cc(Nc2cc(N3OCC[C@@H]3c3ccc(C)nc3)ncn2)c(OC)cc1N1CCN(C2CC2)CC1` [Example 46, N-(2-(4-cyclopropylpiperazine-1-yl)-4-methoxy-5-((6-((R)-3-(6-methylpyridine-3-yl)isoxazolidine-2-yl)pyrimidine-4-yl)amino)phenyl) acrylamide]: the “Ba/F3 (NPH) Activity” value is recorded as “C (500 nM ≤ GI50 < 5000 nM)”.

Consider `C=CC(=O)Nc1cc(Nc2cc(N3OCC[C@@H]3c3ccc(Cl)c(F)c3)ncn2)c(OC)cc1N1CCOCC1` [compound 854, N-(5-((6-((R)-3-(4-chloro-3-fluorophenyl)isoxazolidine-2-yl)pyrimidine-4-yl)amino)-4-methoxy-2-morpholinophenyl) acrylamide], for which the “Ba/F3 (NPH) Activity” value is “A (GI50 < 50 nM)”.
